# Assay results reported in patent US8450357B2, “Compositions comprising an aryl pyrazole and/or a formamidine, methods and uses thereof” (Merial Limited, priority 2008, dated 2013).
# What was measured:
# [1] = test system: ticks (Rhipicephalus sanguineus); assay: Study A: tick efficacy of Compound 1 spot-on formulations in dogs; format: in vivo
# Description: An initial clinical study was conducted to test the efficacy of Compound 1 (3-cyano-1-(2-chloro-6-fluoro-4-trifluoromethylphenyl)-4-dichlorofluoromethylsulfinyl-5-methyl-1H-pyrazole) against ticks and fleas in various test formulations. Five test groups and an untreated control were evaluated. Each test group included six dogs. Compound was dissolved in a solvent or a combination of two or more solvents at 10% w/w. Test articles were formulated as topical spot-on solutions containing compound 1, 10% w/v in a solvent or a combination of solvents as described above. Dogs were infested with approximately 50 ticks (Rhipicephalus sanguineus) on days −1, 7, 14, 21, 28, 35 and 42. Dogs were also infested with approximately 100 fleas (Ctenocephalides felis) on days −1, 8, 15, 22, 29, 36, and 43. Treatment was applied by parting the hair and applying the formulation directly onto the skin on one spot at the midline of the neck, between the base of the skull and the shoulder blades. The dose rate of each of the topical solutions was 0.1 ml/kg (10 mg/kg) body weight. The efficacy of compound 1 in various formulations is shown Table 2 below.
# Negative values indicate % increase in tick counts relative to control.
# [2] = test system: ticks (Rhipicephalus sanguineus); assay: Study B: tick efficacy of Compound 1 spot-on formulations in dogs; format: in vivo
# Source text: A separate clinical efficacy study in dogs was designed with an untreated control group and 5 test groups treated with compound 1. Each group had six dogs. Test articles were formulated as topical spot-on solutions containing compound 1, 10-20% w/v in a solvent or a combination of solvents as described above. Dogs were infested with approximately 50 ticks (Rhipicephalus sanguineus) on days −1, 7, 14, 21, 28, 35 and 42. Dogs were also infested with approximately 100 fleas (Ctenocephalides felis) on days −1, 8, 15, 22, 29, 36, and 43. Treatment was applied by parting the hair and applying the formulation directly onto the skin on one spot at the midline of the neck, between the base of the skull and the shoulder blades. […] […] It should be noted that Study A and Study B were conducted at different times and locations, and the results of each clinical study may differ from the other based on various environmental factors. Thus, the results of one clinical study should not be compared with those of another due to these factors.
structure (smiles),measurement,setting,value
"Cc1c([S+]([O-])C(F)(Cl)Cl)c(C#N)nn1-c1c(F)cc(C(F)(F)F)cc1Cl (centres unmarked) [Compound 1, 3-cyano-1-(2-chloro-6-fluoro-4-trifluoromethylphenyl)-4-dichlorofluoromethylsulfinyl-5-methyl-1H-pyrazole]",% Efficacy against ticks,"[1]; Day 1, Trt. Group 2: 10 mg/kg in Butyl acetate/octyl acetate",48.6%
same,% Efficacy against ticks,"[1]; Day 1, Trt. Group 3: 10 mg/kg in Diethylene glycol monoethyl ether (transcutol)/N-methyl-2-pyrrolidone",59.0%
same,% Efficacy against ticks,"[1]; Day 1, Trt. Group 4: 10 mg/kg in Dipropylene glycol monomethyl ether/butyl acetate",71.5%
same,% Efficacy against ticks,"[1]; Day 1, Trt. Group 5: 10 mg/kg in Diisopropyl adipate",71.5%
same,% Efficacy against ticks,"[1]; Day 1, Trt. Group 6: 10 mg/kg in Triacetin",80.7%
same,% Efficacy against ticks,"[1]; Day 2, Trt. Group 2: 10 mg/kg in Butyl acetate/octyl acetate",67.6%
same,% Efficacy against ticks,"[1]; Day 2, Trt. Group 3: 10 mg/kg in Diethylene glycol monoethyl ether (transcutol)/N-methyl-2-pyrrolidone",60.8%
same,% Efficacy against ticks,"[1]; Day 2, Trt. Group 4: 10 mg/kg in Dipropylene glycol monomethyl ether/butyl acetate",72.0%
same,% Efficacy against ticks,"[1]; Day 2, Trt. Group 5: 10 mg/kg in Diisopropyl adipate",86.0%
same,% Efficacy against ticks,"[1]; Day 2, Trt. Group 6: 10 mg/kg in Triacetin",79.2%
same,% Efficacy against ticks,"[1]; Day 9, Trt. Group 2: 10 mg/kg in Butyl acetate/octyl acetate",88.1%
same,% Efficacy against ticks,"[1]; Day 9, Trt. Group 3: 10 mg/kg in Diethylene glycol monoethyl ether (transcutol)/N-methyl-2-pyrrolidone",78.1%
same,% Efficacy against ticks,"[1]; Day 9, Trt. Group 4: 10 mg/kg in Dipropylene glycol monomethyl ether/butyl acetate",71.2%
same,% Efficacy against ticks,"[1]; Day 9, Trt. Group 5: 10 mg/kg in Diisopropyl adipate",90.4%
same,% Efficacy against ticks,"[1]; Day 9, Trt. Group 6: 10 mg/kg in Triacetin",83.1%
same,% Efficacy against ticks,"[1]; Day 16, Trt. Group 2: 10 mg/kg in Butyl acetate/octyl acetate",88.7%
same,% Efficacy against ticks,"[1]; Day 16, Trt. Group 3: 10 mg/kg in Diethylene glycol monoethyl ether (transcutol)/N-methyl-2-pyrrolidone",81.4%
same,% Efficacy against ticks,"[1]; Day 16, Trt. Group 4: 10 mg/kg in Dipropylene glycol monomethyl ether/butyl acetate",90.5%
same,% Efficacy against ticks,"[1]; Day 16, Trt. Group 5: 10 mg/kg in Diisopropyl adipate",83.2%
same,% Efficacy against ticks,"[1]; Day 16, Trt. Group 6: 10 mg/kg in Triacetin",91.7%
same,% Efficacy against ticks,"[1]; Day 23, Trt. Group 2: 10 mg/kg in Butyl acetate/octyl acetate",41.1%
same,% Efficacy against ticks,"[1]; Day 23, Trt. Group 3: 10 mg/kg in Diethylene glycol monoethyl ether (transcutol)/N-methyl-2-pyrrolidone",52.2%
same,% Efficacy against ticks,"[1]; Day 23, Trt. Group 4: 10 mg/kg in Dipropylene glycol monomethyl ether/butyl acetate",38.4%
same,% Efficacy against ticks,"[1]; Day 23, Trt. Group 5: 10 mg/kg in Diisopropyl adipate",20.4%
same,% Efficacy against ticks,"[1]; Day 23, Trt. Group 6: 10 mg/kg in Triacetin",89.1%
same,% Efficacy against ticks,"[1]; Day 30, Trt. Group 2: 10 mg/kg in Butyl acetate/octyl acetate",64.0%
same,% Efficacy against ticks,"[1]; Day 30, Trt. Group 3: 10 mg/kg in Diethylene glycol monoethyl ether (transcutol)/N-methyl-2-pyrrolidone",45.9%
same,% Efficacy against ticks,"[1]; Day 30, Trt. Group 4: 10 mg/kg in Dipropylene glycol monomethyl ether/butyl acetate",71.7%
same,% Efficacy against ticks,"[1]; Day 30, Trt. Group 5: 10 mg/kg in Diisopropyl adipate",78.2%
same,% Efficacy against ticks,"[1]; Day 30, Trt. Group 6: 10 mg/kg in Triacetin",72.3%
same,% Efficacy against ticks,"[1]; Day 44, Trt. Group 2: 10 mg/kg in Butyl acetate/octyl acetate",−8.6%
same,% Efficacy against ticks,"[1]; Day 44, Trt. Group 3: 10 mg/kg in Diethylene glycol monoethyl ether (transcutol)/N-methyl-2-pyrrolidone",−10.8%
same,% Efficacy against ticks,"[1]; Day 44, Trt. Group 4: 10 mg/kg in Dipropylene glycol monomethyl ether/butyl acetate",−29.9%
same,% Efficacy against ticks,"[1]; Day 44, Trt. Group 5: 10 mg/kg in Diisopropyl adipate",0.3%
same,% Efficacy against ticks,"[1]; Day 44, Trt. Group 6: 10 mg/kg in Triacetin",47.8%
same,% Efficacy against ticks,"[2]; Day 1, Trt. Group 2: 0.1 ml/kg (10 mg/kg) in Triacetin",94.8%
same,% Efficacy against ticks,"[2]; Day 1, Trt. Group 3: 0.2 ml/kg (20 mg/kg) in Triacetin",93.9%
same,% Efficacy against ticks,"[2]; Day 1, Trt. Group 4: 10 mg/kg in Diisopropyl adipate",95.6%
same,% Efficacy against ticks,"[2]; Day 1, Trt. Group 5: 10 mg/kg in Diethylene glycol monoethyl ether (transcutol)",87.4%
same,% Efficacy against ticks,"[2]; Day 1, Trt. Group 6: 10 mg/kg in Triacetin/diisopropyl adipate",94.8%
same,% Efficacy against ticks,"[2]; Day 2, Trt. Group 2: 0.1 ml/kg (10 mg/kg) in Triacetin",99.6%
same,% Efficacy against ticks,"[2]; Day 2, Trt. Group 3: 0.2 ml/kg (20 mg/kg) in Triacetin",98.9%
same,% Efficacy against ticks,"[2]; Day 2, Trt. Group 4: 10 mg/kg in Diisopropyl adipate",98.9%
same,% Efficacy against ticks,"[2]; Day 2, Trt. Group 5: 10 mg/kg in Diethylene glycol monoethyl ether (transcutol)",98.5%
same,% Efficacy against ticks,"[2]; Day 2, Trt. Group 6: 10 mg/kg in Triacetin/diisopropyl adipate",99.6%
same,% Efficacy against ticks,"[2]; Day 9, Trt. Group 2: 0.1 ml/kg (10 mg/kg) in Triacetin",100%
same,% Efficacy against ticks,"[2]; Day 9, Trt. Group 3: 0.2 ml/kg (20 mg/kg) in Triacetin",100%
same,% Efficacy against ticks,"[2]; Day 9, Trt. Group 4: 10 mg/kg in Diisopropyl adipate",100%
same,% Efficacy against ticks,"[2]; Day 9, Trt. Group 5: 10 mg/kg in Diethylene glycol monoethyl ether (transcutol)",100%
same,% Efficacy against ticks,"[2]; Day 9, Trt. Group 6: 10 mg/kg in Triacetin/diisopropyl adipate",100%
same,% Efficacy against ticks,"[2]; Day 16, Trt. Group 2: 0.1 ml/kg (10 mg/kg) in Triacetin",100%
same,% Efficacy against ticks,"[2]; Day 16, Trt. Group 3: 0.2 ml/kg (20 mg/kg) in Triacetin",100%
same,% Efficacy against ticks,"[2]; Day 16, Trt. Group 4: 10 mg/kg in Diisopropyl adipate",100%
same,% Efficacy against ticks,"[2]; Day 16, Trt. Group 5: 10 mg/kg in Diethylene glycol monoethyl ether (transcutol)",100%
same,% Efficacy against ticks,"[2]; Day 16, Trt. Group 6: 10 mg/kg in Triacetin/diisopropyl adipate",100%
same,% Efficacy against ticks,"[2]; Day 23, Trt. Group 2: 0.1 ml/kg (10 mg/kg) in Triacetin",100%
same,% Efficacy against ticks,"[2]; Day 23, Trt. Group 3: 0.2 ml/kg (20 mg/kg) in Triacetin",100%
same,% Efficacy against ticks,"[2]; Day 23, Trt. Group 4: 10 mg/kg in Diisopropyl adipate",99.1%
same,% Efficacy against ticks,"[2]; Day 23, Trt. Group 5: 10 mg/kg in Diethylene glycol monoethyl ether (transcutol)",100%
same,% Efficacy against ticks,"[2]; Day 23, Trt. Group 6: 10 mg/kg in Triacetin/diisopropyl adipate",100%
same,% Efficacy against ticks,"[2]; Day 30, Trt. Group 2: 0.1 ml/kg (10 mg/kg) in Triacetin",98.8%
same,% Efficacy against ticks,"[2]; Day 30, Trt. Group 3: 0.2 ml/kg (20 mg/kg) in Triacetin",100%
same,% Efficacy against ticks,"[2]; Day 30, Trt. Group 4: 10 mg/kg in Diisopropyl adipate",99.1%
same,% Efficacy against ticks,"[2]; Day 30, Trt. Group 5: 10 mg/kg in Diethylene glycol monoethyl ether (transcutol)",98.8%
same,% Efficacy against ticks,"[2]; Day 30, Trt. Group 6: 10 mg/kg in Triacetin/diisopropyl adipate",98.8%
same,% Efficacy against ticks,"[2]; Day 44, Trt. Group 2: 0.1 ml/kg (10 mg/kg) in Triacetin",94.5%
same,% Efficacy against ticks,"[2]; Day 44, Trt. Group 3: 0.2 ml/kg (20 mg/kg) in Triacetin",99.4%
same,% Efficacy against ticks,"[2]; Day 44, Trt. Group 4: 10 mg/kg in Diisopropyl adipate",93.4%
same,% Efficacy against ticks,"[2]; Day 44, Trt. Group 5: 10 mg/kg in Diethylene glycol monoethyl ether (transcutol)",98.5%
same,% Efficacy against ticks,"[2]; Day 44, Trt. Group 6: 10 mg/kg in Triacetin/diisopropyl adipate",96.6%
same,% Efficacy against ticks,"[2]; Day 51, Trt. Group 2: 0.1 ml/kg (10 mg/kg) in Triacetin",90.8%
same,% Efficacy against ticks,"[2]; Day 51, Trt. Group 3: 0.2 ml/kg (20 mg/kg) in Triacetin",99.3%
same,% Efficacy against ticks,"[2]; Day 51, Trt. Group 4: 10 mg/kg in Diisopropyl adipate",87.9%
same,% Efficacy against ticks,"[2]; Day 51, Trt. Group 5: 10 mg/kg in Diethylene glycol monoethyl ether (transcutol)",98.9%
same,% Efficacy against ticks,"[2]; Day 51, Trt. Group 6: 10 mg/kg in Triacetin/diisopropyl adipate",91.6%
same,% Efficacy against ticks,"[2]; Day 58, Trt. Group 2: 0.1 ml/kg (10 mg/kg) in Triacetin",74.6%
same,% Efficacy against ticks,"[2]; Day 58, Trt. Group 3: 0.2 ml/kg (20 mg/kg) in Triacetin",97.6%
same,% Efficacy against ticks,"[2]; Day 58, Trt. Group 4: 10 mg/kg in Diisopropyl adipate",89.5%
same,% Efficacy against ticks,"[2]; Day 58, Trt. Group 5: 10 mg/kg in Diethylene glycol monoethyl ether (transcutol)",94.1%
same,% Efficacy against ticks,"[2]; Day 58, Trt. Group 6: 10 mg/kg in Triacetin/diisopropyl adipate",88.1%
